Measured values as given in patent US20150335547A1, “ORAL CARE COMPOSITION CONTAINING IONIC LIQUIDS” (priority 2012, published 2015).

Test system: biofilm
Assay: biofilm removal by ionic liquids (training set for QSFR model)
Type: cell-based
Settings: where two values were available (MMPZ MeSO4, EMIM Tosylate) the value obtained at the higher pH
Text: The process of QSFR model building involves assembling a dataset with experimental results and molecular structures, descriptor calculation and contingency analysis followed by model generation and validations. Ionic liquids with biofilm removal data served as a data set for model generation. The details of the dataset are shown in Table 1 (ID and biofilm removal data for ionic liquids selected for model generation (training set).

| Compound | % removal of biofilm [%] |
| --- | --- |
| CC(=O)[O-].CCCCn1cc[n+](C)c1 [BMIMOAc, BMIM acetate (OAc)] | 55.9 |
| CCCCn1cc[n+](C)c1.COS(=O)(=O)[O-] [BMIM MeSO4, BMIM methyl sulfate] | 53.9 |
| CCn1cc[n+](C)c1.Cc1ccc(S(=O)(=O)[O-])cc1 [EMIM Tosylate, EMIM tosylate] | 59.5 |
| CCn1cc[n+](C)c1.[Br-] [EMIM Br, EMIM bromide (Br)] | 48.6 |
| COS(=O)(=O)[O-].Cc1cn(C)[n+](C)c1 [MMMPz MeSO4, 1,2,4-trimethylpyrazolium (MMMPZ) methyl sulfate] | 57.8 |
| 1-ethyl-3-methylimidazolium ethylsulphate [EMIM Ethyl SO4] | 48.1 |
| CCCCn1cc[n+](C)c1.[Br-] [BMIM Br, BMIM bromide (Br)] | 48.0 |
| 1,2,3-trimethylimidazolium methyl sulfate [TMIM MeSO4] | 51.8 |
| CCCCCCCCCCn1cc[n+](C)c1.[Cl-] [DMIM CL, 1-decyl-3-methylimidazolium (DMIM) chloride] | 57.3 |
| CCCCCCCCOS(=O)(=O)[O-].CCCCn1cc[n+](C)c1 [BMIM Octyl SO4, BMIM octyl sulfate] | 58.6 |
| C=CCn1cc[n+](C)c1.[Cl-] [AMIM Cl, 1-allyl-3-methylimidazolium (AMIM) chloride] | 44.8 |
| Tris(2-hydroxyethyl)methylammonium methylsulphate [MTEOA MeSO4] | 52.8 |
| CCn1cc[n+](C)c1.[Cl-] [EMIM Cl, 1-ethyl-3-methylimidazolium (EMIM) chloride (Cl)] | 44.3 |
| CCCCn1cc[n+](C)c1.[Cl-] [BMIM Cl, 1-butyl-3-methylimidazolium (BMIM) chloride (Cl)] | 43.8 |
| CCOP(=O)([O-])OCC.CCn1cc[n+](C)c1 [EMIM diethyl PO4, EMIM diethyl phosphate] | 52.7 |
